System: P12-Ichikawa
Assay: cell viability relative to DMSO control; higher = less cytotoxic
Conditions: 48 h
Outline: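 Cells were incubated for 48 h at 37°C before CellTiter-Glo One luminescence was read. The cells were NOMO1 or SEM (500 cells/well) or P12-Ichikawa (1000 cells/well) leukemia cells, adapted for at least four passages in each medium and seeded in 1536-well plates (5 μl). Dosing used library compounds in DMSO applied by pin over 11 threefold points, 47 μM to 0.79 nM. Viability is the per-plate percentage of DMSO wells, with cell-free wells as background.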

[1] = HPLM + 10% dialyzed FBS, 0.000781 µM
[2] = HPLM + 10% dialyzed FBS, 0.00234 µM
[3] = HPLM + 10% dialyzed FBS, 0.00702 µM
[4] = HPLM + 10% dialyzed FBS, 0.0211 µM
[5] = HPLM + 10% dialyzed FBS, 0.0632 µM
[6] = HPLM + 10% dialyzed FBS, 0.19 µM
[7] = HPLM + 10% dialyzed FBS, 0.569 µM
[8] = HPLM + 10% dialyzed FBS, 1.71 µM
[9] = HPLM + 10% dialyzed FBS, 5.12 µM
[10] = HPLM + 10% dialyzed FBS, 15.4 µM
[11] = HPLM + 10% dialyzed FBS, 46.1 µM
[12] = RPMI 5 mM glucose + 10% FBS, 0.000781 µM
[13] = RPMI 5 mM glucose + 10% FBS, 0.00234 µM
[14] = RPMI 5 mM glucose + 10% FBS, 0.00702 µM
[15] = RPMI 5 mM glucose + 10% FBS, 0.0211 µM
[16] = RPMI 5 mM glucose + 10% FBS, 0.0632 µM
[17] = RPMI 5 mM glucose + 10% FBS, 0.19 µM
[18] = RPMI 5 mM glucose + 10% FBS, 0.569 µM
[19] = RPMI 5 mM glucose + 10% FBS, 1.71 µM
[20] = RPMI 5 mM glucose + 10% FBS, 5.12 µM
[21] = RPMI 5 mM glucose + 10% FBS, 15.4 µM
[22] = RPMI 5 mM glucose + 10% FBS, 46.1 µM
[23] = RPMI 5 mM glucose + 10% dialyzed FBS, 0.000781 µM
[24] = RPMI 5 mM glucose + 10% dialyzed FBS, 0.00234 µM
[25] = RPMI 5 mM glucose + 10% dialyzed FBS, 0.00702 µM
[26] = RPMI 5 mM glucose + 10% dialyzed FBS, 0.0211 µM
[27] = RPMI 5 mM glucose + 10% dialyzed FBS, 0.0632 µM
[28] = RPMI 5 mM glucose + 10% dialyzed FBS, 0.19 µM
[29] = RPMI 5 mM glucose + 10% dialyzed FBS, 0.569 µM
[30] = RPMI 5 mM glucose + 10% dialyzed FBS, 1.71 µM
[31] = RPMI 5 mM glucose + 10% dialyzed FBS, 5.12 µM
[32] = RPMI 5 mM glucose + 10% dialyzed FBS, 15.4 µM
[33] = RPMI 5 mM glucose + 10% dialyzed FBS, 46.1 µM

| Compound | cell viability [1] [%] | cell viability [2] [%] | cell viability [3] [%] | cell viability [4] [%] | cell viability [5] [%] | cell viability [6] [%] | cell viability [7] [%] | cell viability [8] [%] | cell viability [9] [%] | cell viability [10] [%] | cell viability [11] [%] | cell viability [12] [%] | cell viability [13] [%] | cell viability [14] [%] | cell viability [15] [%] | cell viability [16] [%] | cell viability [17] [%] | cell viability [18] [%] | cell viability [19] [%] | cell viability [20] [%] | cell viability [21] [%] | cell viability [22] [%] | cell viability [23] [%] | cell viability [24] [%] | cell viability [25] [%] | cell viability [26] [%] | cell viability [27] [%] | cell viability [28] [%] | cell viability [29] [%] | cell viability [30] [%] | cell viability [31] [%] | cell viability [32] [%] | cell viability [33] [%] |
| --- | --- | --- | --- | --- | --- | --- | --- | --- | --- | --- | --- | --- | --- | --- | --- | --- | --- | --- | --- | --- | --- | --- | --- | --- | --- | --- | --- | --- | --- | --- | --- | --- | --- |
| c1ccc2[nH]c(-c3cscn3)nc2c1 | 115 | 124 | 124 | 128 | 122 | 128 | 122 | 122 | 108 | 86 | 74.6 | 113 | 118 | 110 | 122 | 128 | 120 | 128 | 120 | 135 | 117 | 90.7 | 124 | 131 | 122 | 124 | 130 | 127 | 130 | 121 | 125 | 109 | 72.9 |
| OC[C@H]1O[C@H]([C@H](O)[C@@H]1O)N2\C=C/C(=O)NC2=O | 108 | 103 | 99.1 | 111 | 101 | 104 | 109 | 103 | 99.4 | 110 | 99.6 | 104 | 109 | 103 | 103 | 97.6 | 104 | 117 | 95.3 | 107 | 96 | 90.8 | 101 | 89.1 | 95.9 | 101 | 102 | 98.3 | 109 | 97.1 | 96 | 89.5 | 92.4 |
| COc1ccc(-c2ccc3ncc4c(c3c2)n(-c2ccc(N3CCNCC3)c(C(F)(F)F)c2)c(=O)n4C)cn1 | 99.5 | 92.5 | 79.1 | 74.1 | 72.5 | 48.5 | 48.9 | 40.1 | 30 | 4.22 | 3.22 | 81.7 | 73.2 | 72.3 | 64.2 | 59.4 | 34.7 | 22 | 8.29 | 6.08 | 4.14 | 4 | 86.1 | 91.5 | 63 | 65.8 | 60.9 | 47.1 | 34 | 5.19 | 5.18 | 4.63 | 3.63 |
| ClC1=CC=C(C=C1)C(C#N)C2=C(Cl)C=C(C=C2Cl)N3\N=C/C(=O)NC3=O (centres undefined) | 110 | 106 | 106 | 110 | 110 | 115 | 104 | 110 | 104 | 86.3 | 86.4 | 91 | 94.7 | 93.7 | 94.7 | 93.8 | 101 | 106 | 98.7 | 101 | 85.1 | 82.2 | 95.7 | 99.3 | 104 | 100 | 105 | 102 | 93.7 | 108 | 96.3 | 79.6 | 76 |
| C[C@H](NC(=O)c1sccc1OCc1ccc(Cl)cc1)c1ccccc1 | 97.3 | 87.7 | 88.8 | 83.9 | 84.4 | 78 | 86.3 | 87.2 | 81.2 | 86.2 | 82.7 | 84.7 | 84.5 | 80.8 | 85.2 | 92 | 86.4 | 81 | 85 | 74.5 | 83.5 | 78 | 84.6 | 90 | 91.9 | 88.3 | 88.4 | 83.2 | 91.1 | 77.1 | 74.5 | 82.1 | 86 |
| c1ccc(CCCN2CCN(CCOC(c3ccccc3)c3ccccc3)CC2)cc1 | 89.2 | 90.8 | 104 | 95.5 | 99.2 | 91.3 | 89.7 | 87.5 | 91.6 | 77.3 | 67.3 | 91.4 | 97.1 | 94.4 | 94.5 | 93.9 | 94 | 98.2 | 90.2 | 92.3 | 78.4 | 55 | 83.7 | 88.3 | 88 | 91.4 | 94.1 | 85 | 94.7 | 87.1 | 88.5 | 75.2 | 38.3 |
| NNCCc1ccccc1 | 116 | 123 | 118 | 115 | 118 | 116 | 115 | 113 | 113 | 106 | 95.3 | 120 | 115 | 120 | 117 | 110 | 119 | 129 | 128 | 109 | 106 | 91.9 | 109 | 116 | 116 | 110 | 123 | 111 | 112 | 116 | 113 | 107 | 96.9 |
| CNCC(O)c1ccc(O)cc1 (centres undefined) | 103 | 106 | 113 | 113 | 124 | 122 | 118 | 118 | 120 | 119 | 120 | 99.8 | 116 | 114 | 121 | 124 | 127 | 122 | 129 | 123 | 131 | 107 | 99.4 | 110 | 115 | 119 | 114 | 113 | 118 | 113 | 123 | 121 | 114 |

Reference: the supplement of paper PMC11451515
